One series has as its system T cells. The series is described as follows: Cell viability of immune cells by cell count. It counts as cell-based. Particulars: 0.1 μM PKF118-310 in combination with 0.5 mM ascorbic acid, 24h. The method, then: (§1) Immune cells comprise T cells and Macrophages, wherein the T cells are cultured with a 1640 medium, and the macrophages are cultured with a DMEM medium. The particular procedures are follows:
(§2) 10 μL was taken for counting.
(§3) (5) After 24h of dosing, the medium was discarded. […] The cells were digested for 5 min;

The test system of a further series is macrophages. The series is described as follows: Cell viability of immune cells by cell count. Particulars: 0.1 μM PKF118-310 in combination with 0.5 mM ascorbic acid, 24h. It counts as cell-based. The method, then: as §1, §2, §3
The subject of a further series is DB lymphoma cells. The method, then:
(1) Cells were plated in a 10 cm culture plate to grow a density of about 90%. The medium was removed, and the adherent cells were washed once with a PBS buffer. 1 mL of trypsin was added, and immediately discarded after mixing well. The cells were placed in the incubator and digested for about 5 min, and then about 10 ml of fresh medium was added. 10 μL was taken for counting.
(2) 10 μL of the well-mixed cells were taken and mixed into 10 μL of Trypan Blue solution, and counted.
(3) After counting, the cells were diluted to 1×10^5 cells/ml. The diluted cells were mixed well, and plated into a 24-well plate with 500 μL per well, i.e., about 50,000 cells per well.
(4) The cells plated in the 24-well plate were cultured for about 24h, and then drugs were added. Various test groups comprise 5 groups as follows: the single-drug group of PKF118-310 (with a concentration of 0.1 μM), the group of ascorbic acid (with a concentration of 0.5 mM), the group of PKF118-310 (with a concentration of 0.1 μM) in combination with ascorbic acid (with a concentration of 0.5 mM); the control group that is a cell group to which only solvent DMSO is added; and the blank group that is a group to which no cell is added and only solvent (DMSO) is added.
(5) After 24h of dosing, the medium was discarded. About 150 μL of trypsin was added and then discarded. The cells were digested for 5 min;
(6) After digestion, equivalent amounts of PBS were added into each well and mixed uniformly. Then, 10 μL/well of Trypan Blue solution was added and mixed uniformly. 10 μL of the well-mixed solution was taken and counted. In accordance with “Cell viability=Cell Count of Test Group/Cell Count of Control Group×100%”, the cell viability of various groups was calculated.
For example, as for the DB lymphoma cells, the control group involves adding the solvent DMSO alone, the Vc group involves adding 2 mM of ascorbic acid, the low-dose PKF group involves adding 2 μM of PKF118-310, the low-dose PKF+Vc group involves adding 2 μM of PKF118-310 and 2 mM of ascorbic acid, the high-dose PKF group involves adding 5 μM of PKF118-310, and the high-dose PKF+the Vc group involves adding 5 μM of PKF118-310 and 2 mM of ascorbic acid.

The values that follow come from patent publication US20230181524A1, “PHARMACEUTICAL COMBINATION AND USE THEREOF” (NATURAL MEDICINE INSTITUTE OF ZHEJIANG YANGSHENGTANG CO., …, priority 2020, published 2023).

Where two headings read alike, the source gives them in different places.

In general, cell viability refers to a read-out of living cells in per cent, often relative to untreated cells.

For `Cn1ncnc2c(=O)n(C)c(=O)nc1-2` [PKF118-310], the “effect on immune cells (cell viability)” value in the series with T cells and in the series with macrophages was “does not have effect on the immune cells” throughout. Also, the cell viability in the series with DB lymphoma cells (2 μM and 2 mM ascorbic acid) turned out to be 12%; with DB lymphoma cells (5 μM and 2 mM ascorbic acid) it was 11%; with DB lymphoma cells (single drug 2 μM (low-dose)), 72%; in the series with DB lymphoma cells (single drug 5 μM (high-dose)), 67%. Further, the CDI value with DB lymphoma cells (high-dose (5 μM) with 2 mM ascorbic acid) is given as 0.18; in the series with DB lymphoma cells (low-dose (2 μM) with 2 mM ascorbic acid) it was 0.17.
